According to US7767789B2, “Truncated proteins as cancer markers” (University Hopitals of Cleveland, priority 2005, dated 2010):
Entries after “also recorded” stand apart in the source; their conditions may differ.

Assays:
Assay type in all cases: cell-based, human
CaSki cells [1] = assay: Number of CaSki cells in culture; details: serum-free; 0.2 nM EGF, 2 nM epinephrine, or both, 24 h
Description: Near-confluent cultures of CaSki cells on filters were shifted for 14 hours to serum-free medium supplemented with 1% BSA and were treated in the same medium with 0.2 nM EGF, 2 nM epinephrine, or both for an additional 24 h. At the completion of treatments, cells were harvested off the filters and counted.

CaSki cells [2] = assay: DNA synthesis by [3H]thymidine incorporation; details: 0.2 nM EGF, 2 nM epinephrine
Description: The experiments used CaSki cells, a line of transformed cervical epithelial cells that were obtained from the ATCC (Manassas, Va.) and were previously characterized as stably expressing phenotypic characteristics of human cervical epithelial cells. Cells were grown and subcultured in RPMI-1640 supplemented with 8% fetal calf serum, 0.2% NaHCO3, nonessential amino acids (0.1 mM), L-glutamine (2 mM), penicillin (100 U/ml), streptomycin (100 μg/ml), and gentamycin ([…]) at 37° C. in a […] humidified incubator. Cultures were routinely tested for mycoplasma. Preliminary experiments were conducted on cells plated on culture plates, and definitive experiments were repeated on cells plated on filters. Filters were either Anocell (Anocell-10, Oxon, UK, obtained through Sigma Chemicals, St. Louis, Mo.), Transwell (Costar Corporation, Cambridge, Mass.), or Millicell-CM (Millipore, Bedford, Mass.). Filters were coated on their upper (luminal) surface with 3-5 μg/cm collagen type IV and incubated at 37° C. overnight. […] DNA synthesis DNA synthesis was measured by [^3H]thymidine incorporation. […] The radioactivity [dpm/mg protein, determined by Bio-Rad (Hercules, Calif.) Protein Assay solution] of triplicated samples was determined by scintillation counting (LS1801 scintillation counter; Beckman, Fullerton, Calif.).

CaSki cells [3] = assay: DNA solubilization assay (apoptosis)
Description: Twenty-four hours before the end of the experiment, cells were labeled with [^3H]thymidine (specific activity, 93 Ci/mmol; 5 μCi/1×10^6 cells) for 16 h. The medium was removed, and cells were washed three times with fresh medium lacking [^3H]thymidine and were incubated in the same medium for an additional 6 h. At the end of incubation, the supernatant was stored, and cells were lysed in 0.5 ml lysis buffer (10 mM Tris-HCl, pH 7.5; plus 1 mM EDTA-0.2% Triton X-100) for 1 h at 4° C. The intact chromatin was separated from the fragmented DNA by 5 min centrifugation at 4° C. in Eppendorf microcentrifuge at 12,000×g. The supernatant (lysate) was stored, while the pellet was resuspended in 0.5 ml of 1% sodium dodecyl sulfate (SDS). The radioactivity contained in the supernatants, lysates; and pellets was counted in a scintillation counter, and DNA fragmentation was calculated as: [% Solubilized DNA]=([cpm supernatant+cpm lysates]/[cpm supernatant+cpm lysate+cpm pellet])×100.

For “EGF: Human recombinant EGF, epidermal growth factor”, the “number of cells in culture” value (CaSki cells [1]) was “increased the number of cells in culture”, the “[3H]thymidine incorporation” value (CaSki cells [2]) was “increased [^3H]thymidine incorporation” and the “effect on TNFα-induced increase in DNA solubilization” value (CaSki cells [3]; pretreatment 24 h: 1 μM zinterol or 0.2 nM EGF) was “no significant effect”. The “effect on BzATP-induced apoptosis (DNA solubilization)” value (CaSki cells [3]; pretreatment: EGF 0.2 nM, zinterol/terbutaline 1 μM 24 h, forskolin 10 μM 14 h with IBMX, isoproterenol 10 μM, phenylephrine 100 μM) was “little effect; also recorded: no significant effect”.
